Test results from patent US20050209278A1, “Piperidinyl- and piperazinyl-sulfonylmethyl hydroxamic acids and their use as protease inhibitors” (priority 2002, published 2005).

The compounds below were run against T1, MMP-2 (Homo sapiens, UniProt P08253) (assay: In vitro MMP inhibition, IC50 determination (fluorogenic substrate I)). Conditions: value in parentheses; read-out: MMP-2 (IC-50).
T1 construct: made in house; host or cells: MMP-2-transfected p2AHT2 cells
T1 sequence (P08253 110-660): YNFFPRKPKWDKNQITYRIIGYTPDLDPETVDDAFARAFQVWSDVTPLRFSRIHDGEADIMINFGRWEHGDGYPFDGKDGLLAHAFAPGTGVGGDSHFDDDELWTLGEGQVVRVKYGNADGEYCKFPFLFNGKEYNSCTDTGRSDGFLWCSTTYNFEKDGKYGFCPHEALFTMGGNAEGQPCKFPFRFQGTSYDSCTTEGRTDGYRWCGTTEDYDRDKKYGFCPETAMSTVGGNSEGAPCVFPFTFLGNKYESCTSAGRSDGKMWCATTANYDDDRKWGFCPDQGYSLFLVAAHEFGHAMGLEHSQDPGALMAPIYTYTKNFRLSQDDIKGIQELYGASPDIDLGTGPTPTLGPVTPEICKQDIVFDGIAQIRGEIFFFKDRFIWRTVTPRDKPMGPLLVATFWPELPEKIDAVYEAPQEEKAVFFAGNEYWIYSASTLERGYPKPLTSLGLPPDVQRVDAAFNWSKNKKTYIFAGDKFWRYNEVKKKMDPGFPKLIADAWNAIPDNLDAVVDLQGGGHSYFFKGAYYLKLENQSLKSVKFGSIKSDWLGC
Assay type: biochemical
Protocol: Several hydroxamic acids and salts thereof were analyzed in in vitro assays to determine their ability to inhibit the MMP cleavage of peptide substrates. […] and IC50 constants were calculated from the assayed hydroxamic acid-MMP interactions.
Human recombinant MMP-1, MMP-2, MMP-9, MMP-13, and MMP-14 were used in this assay. All enzymes were prepared in Assignee's laboratories following usual laboratory procedures. Protocols for the preparation and use of these enzymes are available in the scientific literature. See, e.g., Enzyme Nomenclature (Academic Press, San Diego, Calif., 1992) (and the citations therein). See also, Freije et al., “Molecular cloning and expression of collagenase-3, a novel human matrix metalloproteinase produced by breast carcinomas,” J Biol. Chem., 269(24), 16766-16773 (1994).
The MMP-2 proenzyme was purified by gelatin Sepharose chromatography from MMP-2-transfected p2AHT2 cells provided by Dr. Gregory Goldberg of Washington University (St. Louis, Mo.).
All MMPs were activated using 4-aminophenylmercuric acetate (“APMA”, Sigma Chemical, St. Louis, Mo.) or trypsin. MMP-9 also was activated using human recombinant MMP-3 (purified in Assignee's laboratory following standard cloning and purification techniques).
Two fluorogenic, methoxycoumarin-containing polypeptide substrates were used in the MMP inhibition assays: [drawing 427] Here, “Dpa” is 3-(2,4-dinitrophenyl)-L-2,3-diaminopropionyl group, and “MCA” is 7-methoxycoumarin-4-yl acetyl. Substrate (I) was purchased from Baychem (Redwood City, Calif.), and substrate II was prepared Assignee's laboratory. Substrate I was used in the IC50 determination assays, while substrate II was used in the Ki determination assays. In the absence of MMP inhibitory activity, either substrate is cleaved at the Gly-Leu peptide bond. This cleavage separates the highly fluorogenic peptide from the 2,4-dinitrophenyl quencher, thus resulting in increase of fluorescent intensity.
The stock solutions of the assayed hydroxamic acids (or salts thereof) were prepared in 1% dimethyl sulfoxide (DMSO). These stock solutions were diluted in Buffer A (100 mM Tris-HCl, 100 mM NaCl, 10 mM CaCl2, 0.05% polyoxyethylene 23 lauryl ether, pH 7.5) to obtain solutions with different hydroxamic acid concentrations, i.e., assay solutions with different concentrations of the assayed MMP inhibitory compound. The experiment controls contained the same amount of Buffer A/DMSO as the assayed sample, but contained no hydroxamic acid (or salt thereof).
The assays from which the IC50 determinations were made were performed as follows. The MMPs were activated with either trypsin or APMA (4-aminophenylmercuric acetate, Sigma Chemical, St. Louis, Mo.). The assayed hydroxamic acid samples were incubated in Microfluor™ White Plates (Dynatech, Chantilly, Va.) and analyzed on a Perkin Elmer L550 plate reader (Norwalk, Conn.). The excitation wavelength was 328 nm, and the emission wavelength—415 nm. All samples (assayed hydroxamic acids and controls) were incubated in separate plates at room temperature in the presence of 4 μM of MMP substrate (I). As stated in the previous paragraph, samples containing varying concentrations of the same assayed hydroxamic acid were prepared. Inhibition was measured as a reduction in fluorescent intensity as a function of MMP inhibitor concentration.
The above protocols were used to determine IC50 constants and Ki values for the compounds in Examples 1-27 above. All values in Table 2 are given in nM units. The IC50 measurements are in parenthesis.
For CCCCOc1ccc(N2CCN(S(=O)(=O)C3(C(=O)NO)CCN(C(=O)CN)CC3)CC2)cc1 [Example 292], the IC50 was 0.2 nM. Work on CCCCOc1ccc(N2CCN(S(=O)(=O)C3(C(=O)NO)CCN(Cc4cccnc4)CC3)CC2)cc1F [Example 293] yielded an IC50 of 0.3 nM. In the case of CCCCOc1ccc(N2CCN(S(=O)(=O)C3(C(=O)NO)CCN(c4ccc(C)cc4)CC3)CC2)cc1 [Example 295], the IC50 is reported as < 0.1 nM. In the case of CCCCOc1ccc(N2CCN(S(=O)(=O)C3(C(=O)NO)CCN(c4ccc(C)cc4)CC3)CC2)cc1F [Example 296], the IC50 is reported as < 0.1 nM. COCCOc1ccc(N2CCN(S(=O)(=O)C3(C(=O)NO)CCN(C4CC4)CC3)CC2)cc1F [Example 297] was tested, and the IC50 was 0.4 nM. In the case of CCCCOc1ccc(N2CCN(S(=O)(=O)C3(C(=O)NO)CCN(CC4CC4)CC3)CC2)cc1 [Example 298], the IC50 is reported as 1.1 nM. In the case of Cc1cc(N2CCN(S(=O)(=O)C3(C(=O)NO)CCOCC3)CC2)ccc1OC(C)C [Example 299], the IC50 is reported as 12.5 nM. With CS(=O)(=O)c1ccc(N2CCN(S(=O)(=O)C3(C(=O)NO)CCOCC3)CC2)cc1 [Example 300] the IC50 was 27.3 nM. CCCCOc1ccc(N2CCN(S(=O)(=O)C3(C(=O)NO)CCN(C4CC4)CC3)CC2)cc1 [Example 301] showed an IC50 of 0.2 nM. C#CCN1CCC(C(=O)NO)(S(=O)(=O)N2CCN(c3ccc(OCCCC)cc3)CC2)CC1 [Example 303] showed an IC50 of 0.1 nM.
